In ChEMBL document CHEMBL1152209, “Synthesis and biological activity of previtamin D(3) analogues with A-ring modifications” (2008):

Columns and labels:
[1] = target: T1, Vitamin D3 receptor (Sus scrofa) (UniProt A3RGC1); test: Displacement of [3H]1-alpha,25-(OH)2D3 from pig VDR at EC50 relative to 1-alpha,25-(OH)2D3
T1 sequence (whole entry): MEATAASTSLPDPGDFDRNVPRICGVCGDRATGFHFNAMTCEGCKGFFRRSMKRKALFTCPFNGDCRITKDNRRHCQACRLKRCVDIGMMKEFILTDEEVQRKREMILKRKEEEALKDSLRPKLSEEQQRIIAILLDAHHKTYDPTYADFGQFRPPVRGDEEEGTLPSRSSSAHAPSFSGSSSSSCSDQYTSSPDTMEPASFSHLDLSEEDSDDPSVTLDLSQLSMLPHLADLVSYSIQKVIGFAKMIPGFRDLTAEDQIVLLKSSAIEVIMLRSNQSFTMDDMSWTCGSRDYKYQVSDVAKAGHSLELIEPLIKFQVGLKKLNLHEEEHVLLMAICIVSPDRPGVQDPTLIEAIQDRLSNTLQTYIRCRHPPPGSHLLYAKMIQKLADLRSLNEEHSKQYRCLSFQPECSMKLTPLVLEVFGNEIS

[2] = target: T2, Vitamin D-binding protein (Homo sapiens) (UniProt P02774); test: Binding affinity to human DBP at EC50 in 4 degC relative to 1-alpha,25-(OH)2D3
T2 sequence (whole entry): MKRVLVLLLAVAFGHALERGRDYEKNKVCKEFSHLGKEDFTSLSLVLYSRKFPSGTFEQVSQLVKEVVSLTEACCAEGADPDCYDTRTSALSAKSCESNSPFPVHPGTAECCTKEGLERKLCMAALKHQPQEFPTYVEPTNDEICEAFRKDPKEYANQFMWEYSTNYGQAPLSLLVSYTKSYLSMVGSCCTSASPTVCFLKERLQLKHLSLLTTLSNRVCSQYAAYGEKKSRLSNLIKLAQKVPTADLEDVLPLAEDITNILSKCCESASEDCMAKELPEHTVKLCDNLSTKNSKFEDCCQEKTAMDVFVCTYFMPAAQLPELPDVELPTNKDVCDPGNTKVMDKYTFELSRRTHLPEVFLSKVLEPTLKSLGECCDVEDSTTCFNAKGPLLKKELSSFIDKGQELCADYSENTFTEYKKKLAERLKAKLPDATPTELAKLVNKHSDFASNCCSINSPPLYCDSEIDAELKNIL

MCF7 = test: Inhibition of human MCF7 cell proliferation assessed as [3H]thymidine incorporation at EC50 after 72 hrs relative to 1-alpha,25-(OH)2D3; assay type: functional

Row | Activity [1] | Activity [2] | SMILES | inhibition (INH) (MCF7)
1 | 0% | 0.5% | C[C@H](CCCC(C)(C)O)[C@H]1CC[C@H]2C(/C=C\C3=C[C@@H](O)[C@H](OCCCO)[C@H](O)C3)=CCC[C@]12C | 0%
2 | 0% | 0.9% | C[C@H](CCCC(C)(C)O)[C@H]1CC[C@H]2C(/C=C\C3=C[C@@H](O)[C@@H]4O[C@@H]4C3)=CCC[C@]12C | 0%
